# From patent US20240285660A1, “COMPOSITION FOR WOUND RELIEF AND INHIBITING A PHD PROTEIN AND METHODS OF TREATMENT” (Curapep LLC, priority 2021, published 2024)
# “And” between values parts separate entries of the source, which are not always exact repeats. Identical values can stand only once.
# Test system: HIF1-a protein in L929 cells
# Assay: In vitro HIF stabilization (HIF1-a ELISA, normalized to DNA content)
# Type: cell-based
# Settings: for level of HIF-1a compared to the negative control cells: alone, 0.01, 0.1, 1, 10 and 100 micromolar, L929 cells
SMILES,level of HIF-1a compared to the negative control cells,HIF content increase (normalized to the DNA content) compared to the negative control
"O=c1c(-c2ccc(O)cc2)coc2c([C@@H]3O[C@H](CO)[C@@H](O)[C@H](O)[C@H]3O)c(O)ccc12 [Puerarin, 7-hydroxy-3-(4-hydroxyphenyl)-8-[(2S,3R,4R,5S,6R)-3,4,5-trihydroxy-6-(hydroxymethyl)oxan-2-yl]chromen-4-one]",either a decrease of HIF-1a or the same level of HIF-1a,–
"O=c1cc(-c2ccccc2)oc2ccccc12 [Flavone, 2-phenylchromen-4-one]",either a decrease of HIF-1a or the same level of HIF-1a,–
[Cl-].[Cl-].[Co+2] [CoCl2],–,2.21 fold and 2.16 fold
